Marks after values point to notes of the source that are not given here.
Tests used:
[1] = test system: U-87 MG tumor-bearing mice; design: method as in PMID 37819452; conditions: 370 and 925 kBq without IPBA; cited from earlier work
[2] = test system: U-87 MG tumor-bearing mice; test: Therapeutic experiments in U-87 MG tumor-bearing mice; format: in vivo; conditions: for Relative body weight / Relative tumor volume: 1.85 MBq with IPBA; for Relative body weight: relative to initial body weight; for Relative tumor volume: relative to initial tumor volume
Method: To prepare tumor-bearing mice, 5 × 10^6 of U-87 MG cells were subcutaneously inoculated into the right shoulder of 4-week-old female BALB/c nude mice (13–15 g, Japan SLC, Inc.) as previously reported. At approximately 10-day postinoculation of U-87 MG cells, they were used for each experiment after tumor size reached 0.3–0.5 cm^3.
U-87 MG tumor-bearing mice were divided into three groups, [^211At]1 (1.85 MBq) (n = 6) injected group, only […] (1.85 MBq) and IPBA (n = 6) injected group, and vehicle and IPBA (n = 3) injected group as a control group. In IPBA injected group, it was administered at 10 molar equivalent of blood albumin at 1-h postinjection of [^211At]1 or vehicle. Tumor volume and body weight of mice were monitored 5 or 6 times weekly. Tumor size was measured with a slide caliper, and tumor volume was calculated using a formula: volume = 4/3 π (1/2 length × 1/2 width × 1/2 height). Tumor volume and body weight compared to the values on the day of treatment (relative tumor volume). The mice were euthanized humanely when body weight was less than 80% at baseline (day 0) or when the tumor weight reached more than 10% of body weight as the endpoint.

[3] = test system: U-87 MG tumor-bearing mice; design: method as in PMID 37819452; conditions: until 24-h postinjection, nonadministration of IPBA; cited from earlier work
[4] = Biodistribution of [^211At]1 and [^125I]2 in normal mice with ibuprofen or IPBA as albumin-binding inhibitor; conditions: 4 h after administration
Method: To evaluate the effects of albumin-binding inhibitors in normal mice, [^211At]1 (37 kBq) and [^125I]2 (37 kBq) were intravenously coadministered. […] The total blood albumin (1.1 µmol) in normal mice was calculated from the albumin concentration (3.0 g/dL ≈ 455 µM) in blood, which was informed from Japan SLC, Inc., total blood volume (2.5 mL) as 8% of body weight, and the molecular weight of albumin as 66,000 g/mol. […]
Table S1. Biodistribution of radioactivity 4 h after administration of [^211At]1 and [^125I]2 in normal mice.

[5] = design: method as in PMID 37819452; conditions: normal mice; cited from earlier work
[6] = IPBA 10 eq at 1 h postinjection
[7] = ibuprofen 10 eq at 1 h postinjection

## Ga-DOTA-K([^211At]APBA)-c(RGDfK) [[^211At]1]
[1]
  Weight loss and death: a little weight loss, but no mice died
[2]; 1.85 MBq followed by IPBA, temporary, recovered
  Body weight loss: less than 10%
[2]; 1.85 MBq followed by IPBA, vs control group
  Tumor growth: significantly more inhibited than it was in the control group
[2]; day 0 after injection
  Relative body weight: 1.00 (0.00)
  Relative tumor volume: 1.00 (0.00)
[2]; day 1 after injection
  Relative body weight: 0.99 (0.02)
  Relative tumor volume: 1.14 (0.11)
[2]; day 2 after injection
  Relative body weight: 0.99 (0.01)
  Relative tumor volume: 1.19 (0.09)
[2]; day 3 after injection
  Relative body weight: 0.97 (0.03)
  Relative tumor volume: 1.23 (0.15)
[2]; day 4 after injection
  Relative body weight: 0.96 (0.02)
  Relative tumor volume: 1.21 (0.18)
[2]; day 6 after injection
  Relative body weight: 0.93 (0.04)
  Relative tumor volume: 1.24 (0.17)
[2]; day 7 after injection
  Relative body weight: 0.94 (0.03)
  Relative tumor volume: 1.25 (0.19)
[2]; 1.85 MBq without IPBA
  Time within which all mice died: ≤ 9 days
[3]
  Excretion, feces: 2.75 ± 0.40 %IA
  Excretion, urine: 10.94 ± 2.66 %IA
[4]; IPBA 2 eq at 1 h postinjection
  Radioactivity, Blood: 8.33 (0.29)^ a, b % injected activity per gram
  Radioactivity, Bone: 1.35 (0.06)^ a % injected activity per gram
  Radioactivity, Brain: 0.24 (0.04)^ a % injected activity per gram
  Radioactivity, Heart: 2.90 (0.09) ^a, b % injected activity per gram
  Radioactivity, Kidney: 3.36 (0.20) % injected activity per gram
  Radioactivity, L. intestine: 1.53 (0.39) % injected activity per gram
  Radioactivity, Liver: 1.68 (0.15)^ a % injected activity per gram
  Radioactivity, Lung: 4.96 (0.40)^ a, b % injected activity per gram
  Radioactivity, Muscle: 1.16 (0.09) % injected activity per gram
  Radioactivity, Neck: 0.23 (0.07)^ a % injected activity
  Radioactivity, Pancreas: 1.55 (0.15)^ a, b % injected activity per gram
  Radioactivity, S. intestine: 1.47 (0.05) % injected activity per gram
  Radioactivity, Spleen: 1.54 (0.18) % injected activity per gram
  Radioactivity, Stomach: 1.84 (0.32) % injected activity
[4]; IPBA 5 eq at 1 h postinjection
  Radioactivity, Blood: 3.46 (0.33)^ a, b, c % injected activity per gram
  Radioactivity, Bone: 0.95 (0.08)^ a, b % injected activity per gram
  Radioactivity, Brain: 0.16 (0.01)^ a % injected activity per gram
  Radioactivity, Heart: 1.38 (0.13)^ a, b, c % injected activity per gram
  Radioactivity, Kidney: 3.67 (0.10) ^b % injected activity per gram
  Radioactivity, L. intestine: 0.84 (0.22) ^b % injected activity per gram
  Radioactivity, Liver: 1.35 (0.16)^ a, b, c % injected activity per gram
  Radioactivity, Lung: 2.84 (0.27)^ a, b, c % injected activity per gram
  Radioactivity, Muscle: 0.62 (0.04)^ a, b, c % injected activity per gram
  Radioactivity, Neck: 0.08 (0.02)^ a, b % injected activity
  Radioactivity, Pancreas: 1.03 (0.15)^ a, b, c % injected activity per gram
  Radioactivity, S. intestine: 1.35 (0.13) % injected activity per gram
  Radioactivity, Spleen: 1.19 (0.73)^ a % injected activity per gram
  Radioactivity, Stomach: 1.45 (0.45)^ a, b % injected activity
[4]; [6]
  Radioactivity, Blood: 1.56 (0.20)^ a, b, c, d % injected activity per gram
  Radioactivity, Bone: 0.98 (0.12)^ a, b, c % injected activity per gram
  Radioactivity, Brain: 0.14 (0.02)^ a % injected activity per gram
  Radioactivity, Heart: 0.78 (0.10)^ a, b, c, d % injected activity per gram
  Radioactivity, Kidney: 3.77 (0.50)^ b % injected activity per gram
  Radioactivity, L. intestine: 0.88 (0.27)^ b % injected activity per gram
  Radioactivity, Liver: 0.80 (0.07)^ a, b, c % injected activity per gram
  Radioactivity, Lung: 1.88 (0.12)^ a, b, c % injected activity per gram
  Radioactivity, Muscle: 0.42 (0.03)^ a, b, c, d % injected activity per gram
  Radioactivity, Neck: 0.03 (0.02)^ b, c, d % injected activity
  Radioactivity, Pancreas: 0.66 (0.17)^ a, b, c, d % injected activity per gram
  Radioactivity, S. intestine: 1.14 (0.08)^ a, b, d % injected activity per gram
  Radioactivity, Spleen: 1.22 (0.17)^ a % injected activity per gram
  Radioactivity, Stomach: 1.30 (0.20)^ d % injected activity
[4]; [7]
  Radioactivity, Blood: 10.82 (0.58) ^a % injected activity per gram
  Radioactivity, Bone: 1.57 (0.18)^ a % injected activity per gram
  Radioactivity, Brain: 0.26 (0.03) % injected activity per gram
  Radioactivity, Heart: 3.49 (0.36) % injected activity per gram
  Radioactivity, Kidney: 3.03 (0.24) % injected activity per gram
  Radioactivity, L. intestine: 2.32 (0.57) % injected activity per gram
  Radioactivity, Liver: 1.87 (0.31)^ a % injected activity per gram
  Radioactivity, Lung: 6.44 (1.14) % injected activity per gram
  Radioactivity, Muscle: 1.28 (0.15) % injected activity per gram
  Radioactivity, Neck: 0.18 (0.03)^ a % injected activity
  Radioactivity, Pancreas: 1.85 (0.12) % injected activity per gram
  Radioactivity, S. intestine: 1.58 (0.15) % injected activity per gram
  Radioactivity, Spleen: 1.47 (0.29)^ a % injected activity per gram
  Radioactivity, Stomach: 1.57 (0.21) % injected activity
[4]; vehicle at 1 h postinjection
  Radioactivity, Blood: 14.03 (0.79) % injected activity per gram
  Radioactivity, Bone: 1.88 (0.10) % injected activity per gram
  Radioactivity, Brain: 0.37 (0.11) % injected activity per gram
  Radioactivity, Heart: 3.83 (0.30) % injected activity per gram
  Radioactivity, Kidney: 3.19 (0.20) % injected activity per gram
  Radioactivity, L. intestine: 1.52 (0.35) % injected activity per gram
  Radioactivity, Liver: 2.51 (0.20) % injected activity per gram
  Radioactivity, Lung: 7.69 (0.63) % injected activity per gram
  Radioactivity, Muscle: 1.26 (0.09) % injected activity per gram
  Radioactivity, Neck: 0.05 (0.01) % injected activity
  Radioactivity, Pancreas: 1.88 (0.10) % injected activity per gram
  Radioactivity, S. intestine: 1.85 (0.16) % injected activity per gram
  Radioactivity, Spleen: 2.02 (0.26) % injected activity per gram
  Radioactivity, Stomach: 0.80 (0.10) % injected activity
[5]
  Toxicity: no serious hematotoxicity and weight loss

Reference: article PMC11224111, “Optimizing the pharmacokinetics of an ^211At-labeled RGD peptide with an albumin-binding moiety via the administration of an albumin-binding inhibitor” (European Journal of Nuclear Medicine and Molecular Imaging, 2024)
